Like-named read-outs stand apart in the source and are kept apart here.
Assays:
Assay type in all cases: biochemical
aminopeptidase N (APN) = target: T1, aminopeptidase N (APN) (Homo sapiens, UniProt P15144); test: Aminopeptidase N (APN) enzyme activity assay with L-p-NA substrate; details: for inhibition of APN in in vitro enzyme assay: at the highest concentration; for enzymatic activity of APN: treatment with 10 mM, without sample 0.38 U
T1 construct: purchased Sigma-Aldrich
Description: Figure 2 Effects of AAE and AAE-derived compounds on APN activity. […] The reaction was started by adding 20 μL enzyme solution (1 mU) and incubated for 60 min at 37 °C. The absorbance of samples were measured at 405 nm to determine the formation of p-nitroaniline. Each value is the mean ± SD of triplicate measurements. * p < 0.05 and ** p < 0.01, compared to each control group (Con). Con, control group treated enzyme only.
The activity of APN was determined according to Melzig et al.. Briefly, the enzyme substrate L-p-NA (2 mM) was dissolved in 50 mM N-(2-hydroxyethyl)piperazine-N’-2ethansulfonic acid (HEPES) buffer (pH 7.4) containing 154 mM NaCl. […] The reaction was started by adding 20 μL enzyme solution (approximately 1 mU in HEPES-buffer) and incubated for 60 min at 37 °C. The samples were measured spectrophotometrically at 405 nm to determine the formation of p-nitroanilmne. APN inhibitory activity (%) = ([Absorbance control without sample − Absorbance control with sample]/Absorbance control without sample) × 100

PDE5 = PDE5 (Homo sapiens, UniProt O76074); test: Kinetic assay (Lineweaver–Burk) on PDE5;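 as to Kcat: pure compound doses in mM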; parameters: Vmax / Kcat: unit of the concentration uncertain; details: for inhibition type against PDE5: from changes of Km and 1/Vmax (Lineweaver–Burk), putative decision system [27]; for Ki / Kik/Kiv: PDE5; for Kik/Kiv: ratio according to Yang et al. [27]; for Vmax value of PDE5, fold of non-treated group: non-treated 1.039 mU/min = 1.0-fold
Description: (§1) Lineweaver–Burk plots were employed to analyze the inhibition of the target enzyme. These plots were represented as 1/velocity (1/V) versus 1/substrate concentration (1/[S]) in the presence or absence of each sample (non-treated (black circle), 10 μg or 1 mM (orange circle), 20 μg or 2 mM (silver circle), 50 μg or 5 mM (yellow circle), and 100 μg or 10 mM (blue circle)) as an inhibitor against PDE5.
(§2) These reactions were conducted in a total volume of 80 μL. by a previously described method. The Michaelis–Menten constant (Km) and maximal velocity (Vmax) were calculated using the x and y intercepts, respectively. […] Additionally, the Kik and Kiv inhibition constants were calculated using previously described methods.

APN = target: T2, APN (Homo sapiens, UniProt P15144); test: Kinetic assay (Lineweaver–Burk) on APN; details: for inhibition type against APN: from Kik/Kiv ratio, new decision system [27]; for Vmax value of APN, fold of non-treated group: non-treated 0.316 mU/min = 1.0-fold
T2 construct: purchased Sigma-Aldrich
Description: as §1, with “(1/(S))” for “(1/[S])”, “(blue” for “(orange”, “(green” for “(silver”, “(orange” for “(yellow”, “(purple” for “(blue”, “APN.” for “PDE5.”
as §2

[1] = target: cGMP-specific PDE V (PDE5) (Homo sapiens, UniProt O76074); test: cGMP-specific PDE V (PDE5) enzyme activity assay with p-NPPPh substrate; details: for inhibition rate of PDE5: at the highest concentration (in vitro enzyme assay); for reduction of PDE5 enzymatic activity: range over 1, 2, 5, and 10 mM
Description: Following the addition of 10 mM p-NPPPh, the reaction mixture was incubated at 37 °C for 10 min. After the incubation period, the concentration of liberated 4-nitrophenol was determined by measuring its absorbance values at a wavelength of 405 nm using a microplate reader. […] Con, control group treated enzyme only.
The specific substrate used for PDE5 was p-NPPPh, following a previously described method. The enzyme solution was prepared by adding 1 U of PDE5 to a volume of 10 μL in 40 mM Tris-HCl buffer at pH 7.4. The substrate solution (10 mM) was prepared by dissolving the substrate in Tris-HCl buffer at pH 7.4. […] Following the pretreatment, the reaction was initiated and allowed to continue for an additional 10 min at 37 °C upon the addition of 10 mM p-NPPPh in a total reaction volume of 80 μL. Following the incubation period, the absorbance of the mixture was measured at 405 nm using a microplate reader. The enzyme activity was quantified in units, where one unit corresponds to the amount of enzyme needed to hydrolyze 1 micromol of p-NPPPh. The inhibitory activity of PDE5 (%) was calculated by determining the residual activity (U). PDE5 inhibitory activity (%) = ([Residual unit control without sample − Residual unit control with sample]/Residual unit control without sample) × 100

[2] = PDE5 treated with compound 1 (unit uncertain)
[3] = PDE5 treated with compound 2 (unit uncertain)
[4] = PDE5 treated with compound 5 (unit uncertain)
[5] = PDE5 treated with compound 10 (unit uncertain)
[6] = APN treated with compound 10 mM
[7] = APN, calculated by method of ref 27, read-out: Kik
[8] = APN, calculated by method of ref 27, read-out: Kiv

T1 sequence (P15144 whole entry, species assumed): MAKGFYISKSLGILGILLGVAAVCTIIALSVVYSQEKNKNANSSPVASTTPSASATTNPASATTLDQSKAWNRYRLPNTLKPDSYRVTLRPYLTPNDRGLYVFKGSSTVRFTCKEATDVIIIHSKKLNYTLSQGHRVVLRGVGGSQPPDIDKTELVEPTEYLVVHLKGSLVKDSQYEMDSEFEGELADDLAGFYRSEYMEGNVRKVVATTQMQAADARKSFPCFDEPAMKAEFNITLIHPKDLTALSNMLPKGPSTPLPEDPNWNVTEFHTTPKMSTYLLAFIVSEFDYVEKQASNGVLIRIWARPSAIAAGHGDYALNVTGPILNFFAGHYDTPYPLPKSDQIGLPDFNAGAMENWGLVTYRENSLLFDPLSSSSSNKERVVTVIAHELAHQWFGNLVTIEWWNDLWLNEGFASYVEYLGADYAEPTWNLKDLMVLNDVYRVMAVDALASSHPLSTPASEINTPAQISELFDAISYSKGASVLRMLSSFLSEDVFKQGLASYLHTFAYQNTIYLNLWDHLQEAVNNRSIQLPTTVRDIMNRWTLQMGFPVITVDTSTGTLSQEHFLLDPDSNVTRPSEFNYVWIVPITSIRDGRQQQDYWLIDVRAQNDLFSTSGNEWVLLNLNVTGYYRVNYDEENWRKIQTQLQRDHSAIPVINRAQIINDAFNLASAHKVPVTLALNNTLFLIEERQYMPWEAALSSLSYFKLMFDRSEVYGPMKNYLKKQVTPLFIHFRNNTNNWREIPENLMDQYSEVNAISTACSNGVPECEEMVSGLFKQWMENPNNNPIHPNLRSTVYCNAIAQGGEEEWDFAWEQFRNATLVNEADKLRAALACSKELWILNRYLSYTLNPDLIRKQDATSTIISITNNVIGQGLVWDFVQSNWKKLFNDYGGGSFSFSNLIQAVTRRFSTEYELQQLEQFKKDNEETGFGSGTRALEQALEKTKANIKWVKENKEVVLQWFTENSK
T2 sequence (P15144 whole entry, species assumed): as above

SMILES	inhibition of APN in in vitro enzyme assay (aminopeptidase N (APN)) [%]	enzymatic activity of APN (aminopeptidase N (APN)) [U]	Kcat (PDE5; [2]) [k s^−1]	Vmax (PDE5; [2]) [mU/min]	Kcat (PDE5; [3]) [k s^−1]	Vmax (PDE5; [3]) [mU/min]	Kcat (PDE5; [4]) [k s^−1]	Vmax (PDE5; [4]) [mU/min]	Kcat (PDE5; [5]) [k s^−1]	Vmax (PDE5; [5]) [mU/min]	inhibition type against PDE5 (PDE5)	Kcat (APN; APN treated with compound 1 mM) [s⁻¹]	Vmax (APN; APN treated with compound 1 mM) [mU/min]	Kcat (APN; APN treated with compound 2 mM) [s⁻¹]	Vmax (APN; APN treated with compound 2 mM) [mU/min]	Kcat (APN; APN treated with compound 5 mM) [s⁻¹]	Vmax (APN; APN treated with compound 5 mM) [mU/min]	Kcat (APN; [6]) [s⁻¹]	Vmax (APN; [6]) [mU/min]	Ki (APN; APN, read-out: Ki) [mM]	other results
O=c1c(O)c(-c2ccc(O)cc2)oc2cc(O)cc(O)c12 [KAE, kaempferol]	29	0.27 ± 0.01	5076 ± 98	0.671 ± 0.013	4591 ± 76	0.607 ± 0.010	2390 ± 121	0.316 ± 0.016	1228 ± 69	0.162 ± 0.009	uncompetitive-type	396.3 ± 7.5	0.319 ± 0.006	352.8 ± 7.4	0.284 ± 0.006	308.0 ± 5.0	0.248 ± 0.004	268.5 ± 3.7	0.216 ± 0.003	11.9	IC50 (aminopeptidase N (APN)): > 10 mM; Ki (APN; [7]): 42.1 mM; Ki (APN; [8]): 21.7 mM; inhibition type against APN (APN): uncompetitive-type
C=CCSSSCC=C [DATS, diallyl trisulfide]	19	0.31 ± 0.02	7105 ± 197	0.940 ± 0.026	6757 ± 242	0.894 ± 0.032	4955 ± 174	0.655 ± 0.023	3371 ± 144	0.446 ± 0.019	noncompetitive-type	368.9 ± 7.4	0.297 ± 0.006	365.3 ± 6.2	0.294 ± 0.005	309.2 ± 5.0	0.249 ± 0.004	285.9 ± 5.0	0.230 ± 0.004	18.7	IC50 [1]: 9.49 mM; inhibition rate of PDE5 [1]: 52%; reduction of PDE5 enzymatic activity [1]: 8.34–51.75%; Ki (PDE5): 7.53 mM; Kik/Kiv (PDE5): 17.8; Vmax value of PDE5, fold of non-treated group (PDE5; highest concentration): 0.43 fold; Ki (APN; [7]): 68.5 mM; Ki (APN; [8]): 26.9 mM; Kik/Kiv (APN; APN, ratio according to Yang et al. [27]): 2.5; inhibition type against APN (APN): mixed-type; Km value of APN, fold of non-treated (APN; highest concentration): 1.15 fold; Vmax value of APN, fold of non-treated group (APN; highest concentration): 0.73 fold
C=CCSSCC=C [DADS, diallyl disulfide]	11	0.34 ± 0.02	7253 ± 189	0.959 ± 0.025	6625 ± 159	0.876 ± 0.021	5905 ± 83	0.781 ± 0.011	4383 ± 76	0.580 ± 0.010	noncompetitive-type	394.8 ± 3.7	0.318 ± 0.003	379.5 ± 7.4	0.306 ± 0.006	368.8 ± 6.2	0.297 ± 0.005	364.9 ± 5.0	0.294 ± 0.004	65.7	IC50 (aminopeptidase N (APN)): > 10 mM; Kik/Kiv (PDE5): 16.0; Vmax value of PDE5, fold of non-treated group (PDE5; highest concentration): 0.56 fold; inhibition type against APN (APN): uncompetitive-type; Vmax value of APN, fold of non-treated group (APN; highest concentration): 0.93 fold
C[S@+]([O-])C[C@H](N)C(=O)O [MT, methiin]	32	0.26 ± 0.02	6261 ± 189	0.828 ± 0.025	5580 ± 159	0.738 ± 0.021	4007 ± 98	0.530 ± 0.013	3673 ± 144	0.486 ± 0.019	uncompetitive-type	367.0 ± 3.7	0.296 ± 0.003	310.6 ± 6.2	0.250 ± 0.005	246.8 ± 3.7	0.199 ± 0.003	218.9 ± 2.5	0.176 ± 0.002	13.4	IC50 [1]: 7.56 mM; reduction of PDE5 enzymatic activity [1]: 24.83–53.90%; Ki (PDE5): 21.5 mM; Kik/Kiv (PDE5): 3.2; Km value of PDE5, fold of non-treated (PDE5; highest concentration): 0.74 fold; Vmax value of PDE5, fold of non-treated group (PDE5; highest concentration): 0.47 fold; Ki (APN; [8]): 12.6 mM; inhibition type against APN (APN): noncompetitive-type; Vmax value of APN, fold of non-treated group (APN; highest concentration): 0.56 fold
C/C=C/[S@+]([O-])C[C@H](N)C(=O)O [IA, isoalliin]	26	0.28 ± 0.01	6587 ± 159	0.871 ± 0.021	5489 ± 151	0.726 ± 0.020	4387 ± 129	0.580 ± 0.017	4018 ± 114	0.531 ± 0.015	noncompetitive-type	381.3 ± 6.2	0.307 ± 0.005	331.6 ± 7.4	0.267 ± 0.006	298.9 ± 4.9	0.241 ± 0.004	275.8 ± 3.7	0.222 ± 0.003	33.1	IC50 [1]: 8.42 mM; inhibition rate of PDE5 [1]: 51%; reduction of PDE5 enzymatic activity [1]: 17.23–51.41%; Ki (PDE5): 10.8 mM; Kik/Kiv (PDE5): 13.0; Vmax value of PDE5, fold of non-treated group (PDE5; highest concentration): 0.51 fold; Ki (APN; [8]): 23.7 mM; inhibition type against APN (APN): mixed-type; Vmax value of APN, fold of non-treated group (APN; highest concentration): 0.70 fold

Source: PMC10488055, “Investigation of Potential cGMP-Specific PDE V and Aminopeptidase N Inhibitors of Allium ampeloprasum L. and Its Bioactive Components: Kinetic and Molecular Docking Studies” (International Journal of Molecular Sciences, 2023)
